We go through twelve molecules from PMC10058583, “Development of Novel Fluorinated Polyphenols as Selective Inhibitors of DYRK1A/B Kinase for Treatment of Neuroinflammatory Diseases including Parkinson’s Disease” (Pharmaceuticals, 2023).

Data set [1] deals with T1, 6xHis-tagged rat-truncated DYRK1A (residues 1-497) (Rattus norvegicus, UniProt Q63470).
T1 construct: 6xHis-tagged rat-truncated DYRK1A (residues 1-497); 6xHis; made in house
Briefly: ELISA-based non-radioactive kinase assay, DYRK1A. The format is biochemical. In general terms: An ELISA detects its analyte on a solid surface through an enzyme-linked reagent.

Data set [2] addresses T2, human DYRK1B isoform p65 (GST fusion) (Homo sapiens, UniProt Q9Y463).
T2 construct: made in house
Briefly: ELISA-based non-radioactive kinase assay, DYRK1B. The settings on record: 30 ng GST-DYRK1B, 60 min reaction. In kind it is biochemical. As for the experimental part: (§1) DYRK1B was prepared from human DYRK1B isoform p65 as glutathione S-transferase fusion protein, and DYRK2 was prepared from human DYRK2 isoform 1 as 6xHis-tagged protein, as previously described.
(§2) For DYRK2, the reactions were performed exactly as described for DYRK1A. For DYRK1B, the assays were similarly conducted but with 30 ng GST-DYRK1B and a kinase reaction time of 60 min.

The nature of data set [3]: Pharmacokinetic studies in C57BL/6 mice (plasma and tissues). The format is in vivo, mouse. The conditions noted are these: PO (100 mg/kg). How it is done: To overcome the generally poor PK profile of catechins, we developed a proprietary formulation that allows for the delivery of these drugs in high concentrations for oral (PO) or intranasal (IN) use. Our liquid formulation is based on the solubilizer and penetration enhancer (2-hydroxypropyl)-β-cyclodextrin (HP-β-CD), PEG-400, and water. This vehicle allows us to achieve high drug concentration in dosing solution (up to 20% w/w) when needed. PK studies were conducted for 1c in adult male and female C57BL/6 mice (n = 3/sex/time point) using (1) a single IV dose (5 mg/kg), (2) an IN dose (60 mg/kg, 5 µL of a clear solution/nostril/twice), and (3) a single PO dose (100 mg/kg). We analyzed the concentration of the drug in several tissues, including the brain, lungs, liver, and plasma. We observed that this class of molecules is stable in circulation; however, when the tissues are harvested for bioanalytical work, the drug undergoes rapid degradation, probably because of the direct contact with oxygen and metals, which catalyzes its rapid degradation/oxidation. We were able to stabilize the drug in blood by the immediate addition of ascorbic acid and TCEP [29]; however, the same was not possible with solid organs such as the brain and liver, which need to be collected through surgery and homogenized before any stabilizing agent can be added. Therefore, tissue PK data tend to vary.
C57BL/6J mice were given a single dose of drug via the IN or PO route. […] For PO delivery, we replaced water with saline. The volume for IN delivery was 5 µL/nostril, and the volume used for oral delivery was 10 mL/kg. After sacrifice, blood (500 µL) was collected into K2EDTA microtubes and kept on ice all times (must be centrifuged within 30 min of collection). Blood was centrifuged in EDTA vacuum at 4 °C at 15,000× g for 4 min; ~250 µL of plasma was collected into polyethylene tubes containing 50 µL of AA/TCEP stabilizing solution (20 mM ascorbic acid and 13 mM TCEP in 50 mM K2HPO4 buffer; the pH of the solution was adjusted to 6.5 using 2 M NaOH). Then, 200 µL of the collected plasma was mixed with (1) 24 µL of a solution of 10% ascorbic acid and 0.1% EDTA in 40 mM NaH2PO4; (2) 40 µL of 50 mM sodium phosphate (pH 7.4); (3) 500 units of β-D-glucuronidase type X-A from Escherichia coli (Sigma Chemical Co, St Louis, MO, USA), and (4) 4 units of sulfatase type VIII from abalone entrails (Sigma Chemical Co). The mixture was incubated at 37 °C for 45 min. Plasma was then extracted by the addition of 0.5 mL ACN; the mixture was vortex-mixed for 2 min, then snap-frozen with isopropanol/carbon dioxide dry ice, and the upper layer of ACN was removed. The process was repeated another 2 times. The ACN fractions were pooled into a polyethylene tube kept on ice. The combined fractions were evaporated under a gentle stream of nitrogen at ambient temperature. The residue obtained after evaporation was reconstituted in 200 µL of 75 mM citric acid//25 mM ammonium acetate: ACN (75:25 by vol), and vortexed vigorously for 5 min, and 20 µL of the resulting solution was injected into the LC-MS/MS column.
Drug analysis in tissues: About ~0.4 g of the tissue was homogenized with 1 mL of ice-cold 0.4 M sodium phosphate buffer containing 6 mg of ascorbic acid and 0.5 mg of Na2EDTA (final pH of 6.5). After centrifugation at 4 °C at 15,000× g for 4 min, the supernatant was collected into polyethylene tubes containing 50 µL of the AA/TCEP stabilizing solution. Then 1 U of sulfatase and 250 U of β-glucuronidase were added to the abovementioned homogenized mixture. Samples were incubated at 37 °C for 45 min, then extracted, dried, and resuspended in a manner similar to that for plasma. Samples were then analyzed by LC-MS/MS.

The target in data set [4] is T3, human DYRK2 isoform 1 (6xHis-tagged) (Homo sapiens, UniProt Q92630).
T3 sequence (Q92630 74-601 limits assumed): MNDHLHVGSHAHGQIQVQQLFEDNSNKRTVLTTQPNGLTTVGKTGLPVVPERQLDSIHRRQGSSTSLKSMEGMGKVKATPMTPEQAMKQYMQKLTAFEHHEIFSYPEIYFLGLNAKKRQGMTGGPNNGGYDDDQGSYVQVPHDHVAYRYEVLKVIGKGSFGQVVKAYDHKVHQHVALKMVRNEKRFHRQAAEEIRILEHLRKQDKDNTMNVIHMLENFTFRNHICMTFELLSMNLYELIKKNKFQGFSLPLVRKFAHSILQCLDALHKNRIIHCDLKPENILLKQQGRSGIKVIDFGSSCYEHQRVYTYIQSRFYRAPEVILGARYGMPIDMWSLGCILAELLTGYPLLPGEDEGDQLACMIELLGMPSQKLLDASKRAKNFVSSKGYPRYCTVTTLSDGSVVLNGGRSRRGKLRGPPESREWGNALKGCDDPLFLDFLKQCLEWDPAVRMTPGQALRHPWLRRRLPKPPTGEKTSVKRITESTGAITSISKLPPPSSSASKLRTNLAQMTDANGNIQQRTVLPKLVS
Briefly: ELISA-based non-radioactive kinase assay, DYRK2. The format is biochemical. How it is done:
as §1, §2

The subject of data set [5] is LPS-induced inflammation in C57BL/6J mice. As to the kind of experiment: LPS-induced inflammation model. In kind it is in vivo, mouse. The conditions noted are these: positive control 1 mg/kg PO, LPS i.p. 750 µg/kg. How it is done:
Neuroinflammation is an important factor contributing to cognitive impairment and neurodegenerative diseases such as PD, and the administration of LPS is frequently used to study neuroinflammation-associated diseases in mice.
Each group consisted of six male mice. […] Animals were pretreated for 3 days with the drug of choice; then, treatment with LPS commenced on day 0, and on the 5th day of LPS treatment, the drug was administered half an hour before LPS injection. One hour after LPS treatment, the animals were anesthetized with a mixture of ketamine, xylazine 2%, atropine, and saline (4:2.5:1:2.5). The body temperature of mice under anesthesia was maintained by applying a heating blanket and monitored using a rectal thermometer. After anesthesia, the animals underwent cardiac perfusion with ice-cold saline for three minutes (3 mL/minute via peristaltic pump) via the left ventricle. The right atrium was cut as an outflow route. The right hemisphere was post-fixed overnight in 4% PFA in PBS at 4 °C and stored in 1xPBS containing 0.1% (v/w) sodium azide at 4 °C. The left hemisphere, hippocampus, cortex, midbrain, and brainstem were microdissected, immersed in liquid nitrogen in separate tubes (with one-fifth of the rest of the brain tissue), and stored in microfuge tubes at −80°. TNFα (in both plasma and the hippocampus) was analyzed with ELISA, and the p-tau (AT-8 antibody) level was recorded in the hippocampus and cortex with WB.

The subject of a further data set is DYRK1A. The conditions noted are these: cited from earlier work.
The next data set has as its system DYRK2. The conditions noted are these: read-out: published IC50 DYRK2; cited from earlier work.
In a further data set the test system is DYRK1B. The settings on record: read-out: published IC50 DYRK1B; cited from earlier work.
Where [6] appears, read: both sexes, C57BL/6, mouse, plasma.

Like-named read-outs stand apart in the source and are kept apart here.

T2 sequence (Q9Y463 1-589 isoform Q9Y463-2): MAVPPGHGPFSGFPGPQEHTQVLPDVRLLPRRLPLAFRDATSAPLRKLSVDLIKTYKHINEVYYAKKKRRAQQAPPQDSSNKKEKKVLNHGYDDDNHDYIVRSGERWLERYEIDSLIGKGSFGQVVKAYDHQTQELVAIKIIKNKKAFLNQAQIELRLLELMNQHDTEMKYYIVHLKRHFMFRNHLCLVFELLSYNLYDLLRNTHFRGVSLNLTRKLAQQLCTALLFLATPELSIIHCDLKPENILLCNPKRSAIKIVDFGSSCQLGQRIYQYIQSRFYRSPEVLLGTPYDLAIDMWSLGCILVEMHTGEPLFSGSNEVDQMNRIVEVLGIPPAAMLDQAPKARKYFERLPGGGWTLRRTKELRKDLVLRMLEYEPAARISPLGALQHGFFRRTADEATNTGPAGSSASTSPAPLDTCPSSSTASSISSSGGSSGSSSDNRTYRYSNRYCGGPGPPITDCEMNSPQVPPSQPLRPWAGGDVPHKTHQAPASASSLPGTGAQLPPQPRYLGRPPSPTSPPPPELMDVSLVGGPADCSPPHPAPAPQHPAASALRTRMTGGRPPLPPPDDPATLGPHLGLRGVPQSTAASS

By IC50 is commonly meant the concentration that gives 50% inhibition. For `COc1c(O)c(O)cc(C(=O)O[C@@H]2Cc3c(O)cc(O)cc3O[C@H]2c2cc(O)c(O)c(O)c2)c1F` [Compound 1d], the half-maximal inhibitory concentration (IC50) in data set [1] (read-out: DYRK1A IC50) turned out to be 0.152 µM.

The AUC(0-inf) is the area under the concentration-time curve extrapolated to infinity. A low value points to low exposure. By AUC(0-t) is commonly meant exposure summed from dosing to a finite time, without extrapolation to infinity. Read a low AUC(0-t) as less exposure. Usually Cmax stands for the peak of the concentration-time curve. The term Tmax denotes the time from dosing to the highest level. As a reminder, the half-life is the time needed for the level to fall by half in the phase considered. Read a high half-life as slow decline. Regarding `O=C(O[C@@H]1Cc2c(O)cc(O)cc2O[C@H]1c1cc(O)c(O)c(O)c1)c1c(F)c(O)c(O)c(O)c1F` [Compound 1b], the IC50 in data set [2] is 0.045 µM. The “bioavailability (in words)” value in data set [3] is reported as “much lower than that of 1c”. Also, the Tlast in data set [3] (plasma) is on record as 24 h. Further, in data set [3] (setting [6]), the AUC(0-inf) is 472 ng·h/mL, the area under the curve AUC(0-t) worked out at 379 ng·h/mL, the Cmax was 131 ng/mL and the time of peak concentration (Tmax) worked out at 0.5 h. In data set [3] (setting [6]), this molecule showed a half-life of 12.7 h. The “improvement in anti-DYRK1A activity compared to EGCG” value in data set [1] is listed as “eightfold”. Moreover, in data set [1] (read-out: DYRK1A IC50), the IC50 amounted to 0.028 µM. Further, the IC50 in data set [4] amounted to 0.181 µM.

For the molecule `COc1c(O)c(O)c(F)c(C(=O)O[C@@H]2Cc3c(O)cc(O)cc3O[C@H]2c2cc(O)c(O)c(O)c2)c1F` [Compound 1e], in data set [1] (read-out: DYRK1A IC50), the half-maximal inhibitory concentration (IC50) was 0.125 µM.

On to `C[C@@H]1C[C@H]2[C@@H]3CCC4=CC(=O)C=C[C@]4(C)[C@@]3(F)[C@@H](O)C[C@]2(C)[C@@]1(O)C(=O)CO` [Dexamethasone, reference compound], for which, in data set [5], the efficacy in plasma result is listed as “high efficacy”.

`CC(C)Oc1c(O)c(O)c(F)c(C(=O)O[C@@H]2Cc3c(O)cc(O)cc3O[C@H]2c2cc(O)c(O)c(O)c2)c1F` [Compound 1h]: the concentration for half-maximal inhibition (IC50) in data set [1] (read-out: DYRK1A IC50) turned out to be 0.356 µM.

Turning to `COc1cc(N2CCN(C)CC2)ccc1Nc1nccc(-c2cn(C)c3cnccc23)n1` [AZ-191], the half-maximal inhibitory concentration (IC50) is 0.088 µM with DYRK1A (read-out: published IC50 DYRK1A); 1.89 µM in the data set on DYRK2; 0.098 µM in data set [1]; 1.72 µM in data set [4]; 0.017 µM with DYRK1B.

On to `O=C(O[C@@H]1Cc2c(O)cc(O)cc2O[C@H]1c1cc(O)c(O)c(O)c1)c1cc(O)c(O)c(O)c1F` [Compound 1a], for which the IC50 in data set [2] is 0.042 µM; in data set [1] (read-out: DYRK1A IC50), 0.035 µM; in data set [4] it was 0.258 µM.

`O=C(O[C@@H]1Cc2c(O)cc(O)cc2O[C@H]1c1cc(O)c(O)c(O)c1)c1cc(O)c(O)c(O)c1` [GCG, reference compound]: in data set [4], the IC50 worked out at 0.574 µM.

As a reminder, the bioavailability is dose-corrected exposure relative to a reference, in per cent. In data set [3] (setting [6]), `O=C(O[C@@H]1Cc2c(O)cc(O)cc2O[C@@H]1c1cc(O)c(O)c(O)c1)c1cc(O)c(O)c(O)c1` [EGCG, epigallocatechin gallate, reference compound] gave an AUC(0-inf) of 395 ng·h/mL, an exposure AUC(0-t) of 360 ng·h/mL, a Cmax of 55 ng/mL and a half-life of 5.02 h. Moreover, the bioavailability in data set [3] (both sexes, C57BL/6, mouse, plasma, po, 100 mg/kg, plasma, read-out: F (absolute bioavailability)) turned out to be 2%. The IC50 in the data set with DYRK1A (allosteric inhibitor, read-out: DYRK1A in vitro IC50) is 0.3 to 0.4 µM. In addition, the IC50 in data set [4] is 1.49 µM.

As to `O=C(O[C@@H]1Cc2c(O)cc(O)cc2O[C@H]1c1cc(O)c(O)c(O)c1)c1cc(O)c(O)c(OC(F)F)c1` [Compound 1f], the half-inhibitory concentration (IC50) in data set [1] (read-out: DYRK1A IC50) was determined as 0.252 µM.

With `O=C(O[C@@H]1Cc2c(O)cc(O)cc2O[C@H]1c1cc(O)c(O)c(O)c1)c1cc(OC(F)F)c(O)c(O)c1F` [Compound 1g], in data set [1] (read-out: DYRK1A IC50), the IC50 is 0.136 µM.

`COc1cc(C(=O)OC2Cc3c(O)cc(O)cc3OC2c2cc(O)c(O)c(O)c2)cc(O)c1O` (stereo not shown) [GCG-3”OMe, reference compound]: in data set [1] (read-out: DYRK1A IC50), the half-maximal inhibitory concentration (IC50) came out at 0.206 µM.
